Laboratory results reported in the NIST ThermoML archive (doi:10.1021/je300134c).
± gives the expanded uncertainty stated by the source.

Assay: xn = mol fraction of the nth substance listed
Details: 101 kPa, Liquid; for speed of sound: Sing-around technique in a fixed-path interferometer; for mass density: Vibrating tube method

CCCC[N+]1(C)CCCC1.O=S(=O)([O-])C(F)(F)F [1-butyl-1-methylpyrrolidinium trifluoromethanesulfonate] + O
Details | mass density [kg/m3] | speed of sound [m/s]
278.15 K, x1 = 0.04996 | 1113.86 ± 0.09 | 1595.9 ± 0.79
278.15 K, x1 = 0.1 | 1163.55 ± 0.11 | 1607.6 ± 0.8
278.15 K, x1 = 0.1507 | 1190.82 ± 0.12 | 1602.9 ± 0.81
278.15 K, x1 = 0.1999 | 1208.34 ± 0.14 | 1594.2 ± 0.82
278.15 K, x1 = 0.2996 | 1229.14 ± 0.16 | 1574.1 ± 0.85
278.15 K, x1 = 0.3986 | 1240.96 ± 0.19 | 1557 ± 0.89
278.15 K, x1 = 0.4982 | 1248.7 ± 0.22 | 1543.7 ± 0.93
278.15 K, x1 = 0.5996 | 1254.27 ± 0.26 | 1533.2 ± 0.99
278.15 K, x1 = 0.6993 | 1258.35 ± 0.3 | 1525.3 ± 1
278.15 K, x1 = 0.8017 | 1261.86 ± 0.35 | 1519.6 ± 1.1
278.15 K, x1 = 0.8993 | 1264.45 ± 0.4 | 1514 ± 1.2
278.15 K, x1 = 1 | 1267.23 ± 0.45 | 1513.5 ± 1.2
288.15 K, x1 = 0.04996 | 1108.53 ± 0.08 | 1594.7 ± 0.79
288.15 K, x1 = 0.1 | 1156.83 ± 0.1 | 1596.2 ± 0.8
288.15 K, x1 = 0.1507 | 1183.59 ± 0.12 | 1586 ± 0.81
288.15 K, x1 = 0.1999 | 1200.79 ± 0.13 | 1574.4 ± 0.82
288.15 K, x1 = 0.2996 | 1221.49 ± 0.16 | 1551.6 ± 0.84
288.15 K, x1 = 0.3986 | 1233.35 ± 0.18 | 1533.7 ± 0.88
288.15 K, x1 = 0.4982 | 1241.17 ± 0.22 | 1520 ± 0.93
288.15 K, x1 = 0.5996 | 1246.83 ± 0.25 | 1509.2 ± 0.98
288.15 K, x1 = 0.6993 | 1251.01 ± 0.29 | 1501 ± 1
288.15 K, x1 = 0.8017 | 1254.33 ± 0.34 | 1494.5 ± 1.1
288.15 K, x1 = 0.8993 | 1256.9 ± 0.39 | 1488.9 ± 1.2
288.15 K, x1 = 1 | 1259.74 ± 0.45 | 1486.1 ± 1.2
298.15 K, x1 = 0.04996 | 1102.75 ± 0.08 | 1590.4 ± 0.79
298.15 K, x1 = 0.1 | 1149.85 ± 0.1 | 1582.6 ± 0.79
298.15 K, x1 = 0.1507 | 1176.19 ± 0.12 | 1567.8 ± 0.8
298.15 K, x1 = 0.1999 | 1193.14 ± 0.13 | 1553.8 ± 0.81
298.15 K, x1 = 0.2996 | 1213.77 ± 0.15 | 1529 ± 0.84
298.15 K, x1 = 0.3986 | 1225.71 ± 0.18 | 1510.6 ± 0.87
298.15 K, x1 = 0.4982 | 1233.63 ± 0.21 | 1496.6 ± 0.92
298.15 K, x1 = 0.5996 | 1239.37 ± 0.25 | 1485.8 ± 0.97
298.15 K, x1 = 0.6993 | 1243.63 ± 0.29 | 1477.5 ± 1
298.15 K, x1 = 0.8017 | 1247.06 ± 0.33 | 1470.7 ± 1.1
298.15 K, x1 = 0.8993 | 1249.64 ± 0.38 | 1465 ± 1.2
298.15 K, x1 = 1 | 1252.26 ± 0.44 | 1461.4 ± 1.2
308.15 K, x1 = 0.04996 | 1096.56 ± 0.08 | 1583 ± 0.78
308.15 K, x1 = 0.1 | 1142.62 ± 0.1 | 1567 ± 0.79
308.15 K, x1 = 0.1507 | 1168.56 ± 0.11 | 1548.5 ± 0.79
308.15 K, x1 = 0.1999 | 1185.37 ± 0.13 | 1532.4 ± 0.8
308.15 K, x1 = 0.2996 | 1206 ± 0.15 | 1506.2 ± 0.83
308.15 K, x1 = 0.3986 | 1218.04 ± 0.18 | 1487.4 ± 0.87
308.15 K, x1 = 0.4982 | 1226.07 ± 0.21 | 1473.4 ± 0.91
308.15 K, x1 = 0.5996 | 1231.92 ± 0.24 | 1462.6 ± 0.96
308.15 K, x1 = 0.6993 | 1236.25 ± 0.28 | 1454.5 ± 1
308.15 K, x1 = 0.8017 | 1239.76 ± 0.33 | 1447.4 ± 1.1
308.15 K, x1 = 0.8993 | 1242.39 ± 0.38 | 1442 ± 1.2
308.15 K, x1 = 1 | 1245.09 ± 0.43 | 1437.8 ± 1.2
318.15 K, x1 = 0.04996 | 1089.97 ± 0.08 | 1572.9 ± 0.78
318.15 K, x1 = 0.1 | 1135.15 ± 0.09 | 1549.7 ± 0.78
318.15 K, x1 = 0.1507 | 1160.74 ± 0.11 | 1528 ± 0.79
318.15 K, x1 = 0.1999 | 1177.49 ± 0.12 | 1510.4 ± 0.79
318.15 K, x1 = 0.2996 | 1198.16 ± 0.15 | 1483.1 ± 0.82
318.15 K, x1 = 0.3986 | 1210.34 ± 0.17 | 1464.2 ± 0.86
318.15 K, x1 = 0.4982 | 1218.51 ± 0.2 | 1450.3 ± 0.9
318.15 K, x1 = 0.5996 | 1224.48 ± 0.24 | 1439.7 ± 0.96
318.15 K, x1 = 0.6993 | 1228.9 ± 0.28 | 1431.7 ± 1
318.15 K, x1 = 0.8017 | 1232.49 ± 0.32 | 1424.7 ± 1.1
318.15 K, x1 = 0.8993 | 1235.16 ± 0.37 | 1419.4 ± 1.1
318.15 K, x1 = 1 | 1237.94 ± 0.43 | 1414.9 ± 1.2
328.15 K, x1 = 0.04996 | 1083.01 ± 0.07 | 1560.3 ± 0.77
328.15 K, x1 = 0.1 | 1127.45 ± 0.09 | 1530.8 ± 0.77
328.15 K, x1 = 0.1507 | 1152.76 ± 0.11 | 1506.4 ± 0.78
328.15 K, x1 = 0.1999 | 1169.5 ± 0.12 | 1487.7 ± 0.79
328.15 K, x1 = 0.2996 | 1190.27 ± 0.14 | 1459.7 ± 0.81
328.15 K, x1 = 0.3986 | 1202.62 ± 0.17 | 1441 ± 0.85
328.15 K, x1 = 0.4982 | 1210.95 ± 0.2 | 1427.3 ± 0.9
328.15 K, x1 = 0.5996 | 1217.05 ± 0.23 | 1417 ± 0.95
328.15 K, x1 = 0.6993 | 1221.57 ± 0.27 | 1409.2 ± 1
328.15 K, x1 = 0.8017 | 1225.24 ± 0.32 | 1402.3 ± 1.1
328.15 K, x1 = 0.8993 | 1227.97 ± 0.37 | 1397.3 ± 1.1
328.15 K, x1 = 1 | 1230.81 ± 0.42 | 1392.7 ± 1.2
338.15 K, x1 = 0.04996 | 1075.72 ± 0.07 | 1545.4 ± 0.77
338.15 K, x1 = 0.1 | 1119.53 ± 0.09 | 1510.5 ± 0.77
338.15 K, x1 = 0.1507 | 1144.53 ± 0.1 | 1484 ± 0.77
338.15 K, x1 = 0.1999 | 1161.26 ± 0.12 | 1464.5 ± 0.78
338.15 K, x1 = 0.2996 | 1182.3 ± 0.14 | 1436.3 ± 0.8
338.15 K, x1 = 0.3986 | 1194.89 ± 0.17 | 1418 ± 0.84
338.15 K, x1 = 0.4982 | 1203.39 ± 0.2 | 1404.5 ± 0.89
338.15 K, x1 = 0.5996 | 1209.64 ± 0.23 | 1394.5 ± 0.95
338.15 K, x1 = 0.6993 | 1214.26 ± 0.27 | 1387 ± 1
338.15 K, x1 = 0.8017 | 1218.03 ± 0.31 | 1380.4 ± 1.1
338.15 K, x1 = 0.8993 | 1220.81 ± 0.36 | 1375.5 ± 1.1
338.15 K, x1 = 1 | 1223.73 ± 0.41 | 1371.1 ± 1.2
